Like-named read-outs stand apart in the source and are kept apart here.
How the values were obtained:
[1] = test system: human hepatocarcinoma cells (HepG2); assay: cells; settings: HepG2, read-out: cell mortality
Experimental: The tumor cell line HepG2 was provided by ATCC (American Type Cell Culture—Mannas, Va., No. HB-8065) and subsequently developed in our laboratory. The cells were cultured in complete medium containing MEM added with 10% FCS (bovine fetal serum), 1 mM Na-pyruvate, 2 mM L-glutamine, 0.1 mM non-essential amino acids and antibiotics (penicillin/streptomycin). The medium, culture products and reagents were purchased from Hyclone-Celbio (Milan, Italy). The experimental design provided for the use of ST1326 and of known antineoplastic drugs, such as doxorubicin, against which the HepG2 cells show a high resistance, to determine the agonist action of the compound. […] In this experiment, the following compounds were added to hemiconfluent HepG2 cells in 96 well plates: • 0.25, 0.5, 5.0 μg/mL doxorubicin; • 0.1 μM ST in combination with 0.25 μg/mL doxorubicin.
After 24 hr incubation, the medium containing different concentrations of doxorubicin and the ST/doxorubicin combination was removed and the cells were washed with complete medium. After 3-day treatment, the antineoplastic effect of the test compound was determined in comparison with control cells incubated in complete medium for the same period of time.
The cell mortality was calculated as the percentage (mean±standard deviation) over 10.000 acquired events.

[2] = test system: human hepatocarcinoma cells (HepG2); assay: HepG2 cell count (trypan blue exclusion), antiproliferative and tumoricidal effect; assay type: cell-based; settings: for number of viable cells versus control cultures (FIGURE): HepG2, less than 10 μM, after 24 hours; for antiproliferative and tumoricidal activity in vitro: tumor cell lines, same experimental conditions for etomoxir and compounds (I)
Experimental: (§1) The cells were seeded in 60 mm-diameter Petri dishes. After plating the cells were grown for 24 hours prior to their treatment.
(§2) In this experiment, increasing amounts of the test molecule were added to hemiconfluent HepG2 cells (Kogure et al., Cancer Chemother. Pharmacol., 2003; DOI. 10.1007/s); the antiproliferative and proapoptotic effects were determined at different times from cell seeding.
(§3) The experimental design in some cases provided for the addition of the test compound once the cell culture had been prepared, in other cases the cultures were exposed to the compound every 24 hours after suitably removing the conditioned medium and washing the cells with new (complete) medium. The cells were counted in a Bürker chamber after suitable dilution with a vital dye to visualize the living cells. In particular, the trypan blue exclusion method was used for cell count at 0, 24 and 48 hour treatment. At least 10 cell counts were performed for each experiment and each treatment was carried out in quadruple.
(§4) A further analysis involved cytofluorimetry utilizing propidium iodide as a marker for […] cells. The test compound was assayed vs. the CTP inhibitor etomoxir to verify whether the tumoricidal effect could be attributed to CPT-1 inhibition or involved novel mechanisms.
The data relating to cell viability are expressed as percentage on the number of viable cells from control cultures (=100%). (E=etomoxir; ST1326=tested compound). […] At the same concentrations etomoxir was ineffective.

[3] = test system: human hepatocarcinoma cells (HepG2); assay: Cell mortality of HepG2 cells by propidium iodide flow cytofluorimetry; assay type: cell-based; settings: for mortality at 5 µM / mortality at 20 µM: Homo sapiens
Experimental: as §1, §2, §3, §4
In addition, assays on cell viability were carried out using flow cytofluorimetry techniques.
In further experiments the test molecule was added every 24 hours, as above described, after suitably removing the surnatants and washing the cultures with complete medium. […] In the control, the surnatant was eliminated and complete medium alone was added to the cultures.

[4] = test system: AH-130 Yoshida ascites hepatoma; assay: In vivo antineoplastic activity in rats bearing Yoshida tumor; design: species or system rat; settings: 25 mg/Kg i.p., alternate days, 4 treatments, 15 animals
Experimental: Male Wistar rats (Morini s.r.l.) of 190-200 g weight were maintained at 22±2° C., with a light/dark cycle of 12 hours, and were given free access to water and food (standard diet). Some rats were intraperitoneally inoculated with 10×10^7 cells from AH-130 Yoshida ascites hepatoma (Llovera et al., Int. J. Cancer 61:138-41 (1995); kind gift from Prof. J M Argilès). 5-7 days after the inoculum, the rats developed an ascites that could be detected by macroscopic analysis of the abdomen.
(§5) The experimental protocol provided that 7 days after ascites induction 15 animals (treated group) received 2 ml of a buffered saline containing ST (25 mg/Kg i.p.), whereas other 15 animals (control group) received the buffered saline alone. The same treatment was conducted at alternate days for one week up to a total of 4 treatments for each animal. The dosage was selected on the basis of preliminary studies in which a 6.1 μM plasma concentration of ST was achieved 5 hr after intraperitoneal administration. The animals were subsequently kept under observation for 3 weeks (follow-up), examining the ascites effusion, the presence of subcutaneous neoplastic mass in the inoculum site, and the mortality.

normal PBMCs = assay: Viability test with lymphocytes (PBMCs) taken from healthy individuals; assay type: cell-based; settings: 72 hours
Experimental: In addition, in order to exclude the induction of toxicity in normal PBMCs by the test molecule, viability tests were also carried out with lymphocytes taken from healthy individuals and contacted with the test compound.

[5] = Plasma concentration after intraperitoneal administration (preliminary studies); assay type: in vivo, rat; settings: 5 hr after intraperitoneal administration
Experimental: as §5

[6] = test system: acute leukaemia T cells (Jurkat); assay: Cell mortality of Jurkat cells by propidium iodide flow cytofluorimetry; assay type: cell-based
Experimental: The cells were seeded in […] flasks. After plating the cells were grown for 24 hours prior to their treatment.
The experiment was carried out by adding increasing amounts of the test molecule to hemiconfluent Jurkat cells; the proapoptotic effect was determined at different times from culture preparation.
The experimental design provided for the addition of the test compound only at the start of cell culturing, and the determination of the effects at the established times. The data on cell mortality were obtained using propidium iodide flow cytofluorimetry techniques only. The fact that those cells live suspended in culture rendered these assays extremely easy to perform.
For this reason the cell mortality was determined just after 2 hour treatment and at 24, 48 and 72 hrs.
The mortality was calculated as the percentage over 10.000 acquired standard events. Since the results are almost exactly overlapping, with very low deviation in all the readings for each single experiment, the mean values of 5 cytofluorimetric readings are reported in the following Table without standard deviation.

Which mortality at 0.25 µg/mL [1] does the source give for `COc1cccc2c1C(=O)c1c(O)c3c(c(O)c1C2=O)C[C@@](O)(C(=O)CO)C[C@@H]3O[C@H]1C[C@H](N)[C@H](O)[C@H](C)O1` [Doxorubicina, doxorubicin] here?
The mortality at 0.25 µg/mL was 11.2 ± 1.5%.

What about the mortality at 0.5 µg/mL [1] of the same compound?
Its mortality at 0.5 µg/mL is 22.7 ± 3.5%.

What about the mortality at 5 µg/mL [1] of the same compound?
Its mortality at 5 µg/mL is 48.6 ± 4.1%.

For `CCOC(=O)[C@@]1(CCCCCCOc2ccc(Cl)cc2)CO1` [Etomoxir, etomoxir, reference compound], which “number of viable cells versus control cultures (FIGURE)” value [2] is on record?
The value was “ineffective”.

And the “antiproliferative and tumoricidal activity in vitro” value [2]?
Its value is “did not show any antiproliferative or tumoricidal activity”.

What about the mortality at 5 µM ([3]; HepG2, 24 h, read-out: cell mortality, HepG2, 5 μM, treated only once (time 0), 24 hours) of the same compound?
Its mortality at 5 µM is 10.8 ± 1.65%.

What about the mortality at 20 µM ([3]; HepG2, 24 h, read-out: cell mortality, HepG2, 20 μM, treated only once (time 0), 24 hours) of the same compound?
Its mortality at 20 µM is 13 ± 1.07%.

And the mortality at 5 µM ([3]; HepG2, 48 h, read-out: cell mortality, HepG2, 5 μM, treated only once (time 0), 48 hours)?
Its mortality at 5 µM is 11.8 ± 0.4%.

What about the mortality at 20 µM ([3]; HepG2, 48 h, read-out: cell mortality, HepG2, 20 μM, treated only once (time 0), 48 hours) of the same compound?
Its mortality at 20 µM is 11.2 ± 1.3%.

And the mortality at 5 µM ([3]; HepG2, 72 h, read-out: cell mortality, HepG2, 5 μM, treated only once (time 0), 72 hours)?
The mortality at 5 µM was 10.1 ± 2.1%.

And the mortality at 20 µM ([3]; HepG2, 72 h, read-out: cell mortality, HepG2, 20 μM, treated only once (time 0), 72 hours)?
Its mortality at 20 µM is 11.7 ± 1.3%.

What about the mortality at 5 µM ([3]; HepG2, read-out: cell mortality, HepG2, 5 μM added every 24 hours, 48 hours (second addition)) of the same compound?
The mortality at 5 µM was 10.2 ± 1.7%.

What about the mortality at 5 µM ([3]; HepG2, read-out: cell mortality, HepG2, 5 μM added every 24 hours, 72 hours (third addition)) of the same compound?
The mortality at 5 µM was 12.6 ± 1.1%.

And the mortality at 20 µM ([3]; HepG2, read-out: cell mortality, HepG2, 20 μM added every 24 hours, 48 hours (second addition))?
Its mortality at 20 µM is 13.9 ± 1.2%.

What about the mortality at 20 µM ([3]; HepG2, read-out: cell mortality, HepG2, 20 μM added every 24 hours, 72 hours (third addition)) of the same compound?
Its mortality at 20 µM is 14.1 ± 0.9%.

Which results are given for `CCCCCCCCCCCCCCNC(=O)N[C@H](CC(=O)[O-])C[N+](C)(C)C` [ST1326, R-4-trimethylammonium-3-(tetradecylcarbamoyl)-Aminobutyrate]?
Presence of cachexy (No. of animals) [4]: 1; Presence of tumor cells in the abdominal cavity (post-mortem examination) (No. of animals) [4]: 0; Presence of tumor mass in the inoculum site (No. of animals) [4]: 0; Survival at 1 week follow-up (No. of survived animals) [4]: 15; Survival at 2 week follow-up (No. of survived animals) [4]: 15; Survival at 3 week follow-up (No. of survived animals) [4]: 15; number of viable cells versus control cultures (FIGURE) [2]: remarkable reduction in the number of cells; antiproliferative and tumoricidal activity in vitro [2]: in vitro antiproliferative effect associated with a significant tumoricidal activity; viability test (cell mortality) in PBMCs (normal PBMCs; 1.0 μM): 9%; viability test (cell mortality) in PBMCs (normal PBMCs; 5.0 μM): 10%; viability test (cell mortality) in PBMCs (normal PBMCs; 10 μM): 10%; viability test (cell mortality) in PBMCs (normal PBMCs; 20 μM): 12%; plasma concentration [5]: 6.1 µM; cell mortality ([6]; 0.1 μM, 2 hours): 3%; cell mortality ([6]; 0.1 μM, 24 hours): 4%; cell mortality ([6]; 0.1 μM, 48 hours): 5%; cell mortality ([6]; 0.1 μM, 72 hours): 13%; cell mortality ([6]; 0.25 μM, 2 hours): 3%; cell mortality ([6]; 0.25 μM, 24 hours): 5%; cell mortality ([6]; 0.25 μM, 48 hours): 8%; cell mortality ([6]; 0.25 μM, 72 hours): 14%; cell mortality ([6]; 0.50 μM, 2 hours): 7%; cell mortality ([6]; 0.50 μM, 24 hours): 15%; cell mortality ([6]; 0.50 μM, 48 hours): 35%; cell mortality ([6]; 0.50 μM, 72 hours): 56%; cell mortality ([6]; 1.0 μM, 2 hours): 6%; cell mortality ([6]; 1.0 μM, 24 hours): 79%; cell mortality ([6]; 1.0 μM, 48 hours): 83%; cell mortality ([6]; 1.0 μM, 72 hours): 90%; cell mortality ([6]; 2.5 μM, 2 hours): 6%; cell mortality ([6]; 2.5 μM, 24 hours): 91%; cell mortality ([6]; 2.5 μM, 48 hours): 97%; cell mortality ([6]; 2.5 μM, 72 hours): 99%; cell mortality ([6]; 5.0 μM, 2 hours): 8%; cell mortality ([6]; 5.0 μM, 24 hours): 99%; cell mortality ([6]; 5.0 μM, 48 hours): 99%; cell mortality ([6]; 5.0 μM, 72 hours): 99%; cell mortality ([6]; 10 μM, 2 hours): 20%; cell mortality ([6]; 10 μM, 24 hours): 99%; cell mortality ([6]; 10 μM, 48 hours): 99%; cell mortality ([6]; 10 μM, 72 hours): 99%; cell mortality ([3]; HepG2, 0.1 μM added every 24 hours, 48 hours (second addition)): 45 ± 2.0%; cell mortality ([3]; HepG2, 0.1 μM added every 24 hours, 72 hours (third addition)): 56.5 ± 1.2%; cell mortality ([3]; HepG2, 0.1 μM, prior experiments, partial tumoricidal effect): ~50%; cell mortality ([3]; HepG2, 0.1 μM, treated only once (time 0), 24 hours): 15.3 ± 2.1%; cell mortality ([3]; HepG2, 0.1 μM, treated only once (time 0), 48 hours): 27.3 ± 2.2%; cell mortality ([3]; HepG2, 0.1 μM, treated only once (time 0), 72 hours): 49.9 ± 1.2%; cell mortality ([3]; HepG2, 5 μM added every 24 hours, 48 hours (second addition)): 64.7 ± 1.7%; cell mortality ([3]; HepG2, 5 μM added every 24 hours, 72 hours (third addition)): 89.7 ± 1.4%; cell mortality ([3]; HepG2, 5 μM, treated only once (time 0), 24 hours): 25.78 ± 1.70%; cell mortality ([3]; HepG2, 5 μM, treated only once (time 0), 48 hours): 56.29 ± 1.51%; cell mortality ([3]; HepG2, 5 μM, treated only once (time 0), 72 hours): 93.48 ± 1.5%; cell mortality ([3]; HepG2, 10 μM added every 24 hours, 48 hours (second addition)): 87.5 ± 2.03%; cell mortality ([3]; HepG2, 10 μM added every 24 hours, 72 hours (third addition)): 91.3 ± 1.9%; cell mortality ([3]; HepG2, 10 μM, treated only once (time 0), 24 hours): 53.21 ± 1.5%; cell mortality ([3]; HepG2, 10 μM, treated only once (time 0), 48 hours): 85.10 ± 0.9%; cell mortality ([3]; HepG2, 10 μM, treated only once (time 0), 72 hours): 96.3 ± 1.1%; cell mortality ([3]; HepG2, 20 μM added every 24 hours, 48 hours (second addition)): 93.9 ± 1.03%; cell mortality ([3]; HepG2, 20 μM added every 24 hours, 72 hours (third addition)): 98.1 ± 0.9%; cell mortality ([3]; HepG2, 20 μM, treated only once (time 0), 24 hours): 88.22 ± 1.9%; cell mortality ([3]; HepG2, 20 μM, treated only once (time 0), 48 hours): 89.10 ± 0.17%; cell mortality ([3]; HepG2, 20 μM, treated only once (time 0), 72 hours): 98.51 ± 1.3%

From US8314144B2, “Compounds having antitumor activity” (Defiante Farmaceutica, S.A., priority 2004, dated 2012)
